Measurements: patent US12630579B2, “Proteolysis targeting compound with tissue targeting capability and use thereof” (TAI BI DI PHARMACEUTICAL TECHNOLOGY (SHIJIAZHUANG) CO. LTD, priority 2020, dated 2026)
≈ marks a conversion by molar mass, not a printed value.

Assays:
[1] = Solubility test (equilibrium solubility in deionized water, HPLC); format: physicochemical; conditions: thermodynamic from solid, 37° C.
Method: Series solutions of 1 nM/10 nM/100 nM/100 nM/1 uM/10 uM/100 uM/1 mM were prepared according to following steps: WG compounds to be tested in the present application and corresponding compounds of structure A were respectively weighed, dissolved in deionized water, and oscillated at 37° C. for 12 hours to reach dissolution equilibrium. The resulted solutions were filtered 3 times with a filter membrane, and filtrates were collected. Actual concentrations of the compounds in the solutions were determined with HPLC. A curve of actual concentration of the solution—planned concentration of the solution was drawn, and the turning point of the curve indicated the equilibrium concentration of the compounds.

[2] = system: Liver cancer cells (HUH-7); test: Transmembrane test; format: in vitro ADME; conditions: HUH-7, 24 hours, arithmetic mean over concentrations
Method: (§1) Liver cancer cells (HUH-7) were seeded in a 6-well plate at a concentration of 4*10^5 cells/mL, 2 mL per well, and cultured overnight until the cells were adherent to the wall.
(§2) The next day, compound solutions were prepared as follows: WG compounds of present application and corresponding compounds of structure A were respectively weighed, prepared with pure DMSO into mother solutions of high concentration, then gradiently diluted to obtain compound solutions of 10 uM/30 uM/100 uM/150 uM/300 uM in 10% DMSO, and shaken to mix well.
When the cells were adherent to the wall under microscope observation, 200 uL of compound solutions were added to each well with a ratio of compound solution to culture medium at 1:10.
After culture for 24 hours, the culture medium was sucked out with a pipette, and the wells were then washed five times with phosphate buffer, 2 mL each time for 30 seconds, to ensure there were no compound residues in the environment of the cells. Solutions in the wells were thoroughly sucked up, and 150 uL RIPA Lysis Buffer was added into each well. Then the culture was continued on ice for 30 min to lyse the cells. Lysates were collected and centrifuged at […] for 1 h, and supernatants were collected and characterized with HPLC to determine the concentration of the compounds therein.
The solubility and changes of transmembrane efficiency of WG compounds relative to corresponding compounds of structure A were analyzed and calculated. An arithmetic mean value of transmembrane efficiency changes under different concentrations was calculated, thereby obtaining a reference value of the difference of transmembrane efficiency between two groups of compounds.

[3] = system: Liver cancer cells (HUH-7); test: Cell growth inhibition test (cck-8); format: cell-based; conditions: HUH-7, 72 hours
Method: Liver cancer cells (HUH-7) were seeded in a 96-well plate at a concentration of 2*10^4 cells/mL, 100 uL per well, and cultured overnight.
as §2, with “day, the cells were observed microscope to ensure adherence. Compound” for “day, compound”, “10 nM/100 nM/300 nM/1000 nM/3000 nM” for “10 uM/30 uM/100 uM/150 uM/300 uM”
Positive drug solutions in the control group were prepared with the same solvent and method, and only a single dosage was required. In this test, the positive drug solution is 1 uM lenvatinib.
After solution preparation was completed, 10 uL of compound solutions were added into each well of the 96-well plate, three duplicates for each dosage. The plate was gently shaken to allow the cells to repeatedly contact with the compound solutions, and then the plate was placed in an incubator to culture for 72 hours. 72 hours later, the plate was taken out and 10 uL cck-8 reagent was added into each well and shaken gently to mix well. Then the plate was placed in an incubator to culture for two hours. Two hours later, the plate was taken out and analyzed with a microplate reader to measure the absorbance of each well at a wavelength of 450 nm.
A graph can be drawn according to the gradient of concentrations, and the results can be compared directly.

[4] = system: target protein in liver cancer cells (HUH-7); test: Proteolysis test (Western blot of target protein); format: cell-based; parameters: key to Protein content (blackness of experimental group / blank control group): blot blackness of treated / blank control (fraction of control); conditions: HUH-7, 24 hours
Method: as §1
as §2, with “nM/30 nM/100 nM/300 nM/1000 nM/3000 nM” for “uM/30 uM/100 uM/150 uM/300 uM”, “well. 200 uL of compound solutions were added to each well with a ratio of compound solution to culture medium at 1:10.” for “well.”
After culture for 24 hours, the culture medium was sucked out with a pipette, and then the wells were washed 3 times with PBS. Solutions in the wells were thoroughly sucked up, and 150 uL RIPA Lysis Buffer was added into each well. Then the culture was continued on ice for 30 min to lyse the cells.
Lysates were collected and centrifuged at 16000 rpm for 10 minutes. Supernatants were collected and the total protein content was normalized with a BCA kit to determine target protein contents with Western blot.
The results were analyzed with ImageJ. Blackness of each strip was measured and the protein was quantified for comparison analysis according to formula: Protein content=blackness value of the experimental group/blackness value of the blank control group.

SMILES	solubility thermodynamic at 12 h [1]	Transmembrane efficiency relative to corresponding compound of structure A (WGint4) [2]	IC50 [3]	DC50 [4]	Protein content (blackness of experimental group / blank control group) ([4]; dosage 1 nM)	Protein content (blackness of experimental group / blank control group) ([4]; dosage 10 nM)	Protein content (blackness of experimental group / blank control group) ([4]; dosage 30 nM)	Protein content (blackness of experimental group / blank control group) ([4]; dosage 100 nM)	Protein content (blackness of experimental group / blank control group) ([4]; dosage 300 nM)	solubility thermodynamic ([1]; 12 hours)	IC50 ([3]; Homo sapiens)
COc1cc2nccc(Oc3ccc(NC(=O)NC4CC4)c(Cl)c3)c2cc1C(=O)NCCCCCCC(=O)N[C@H](C(=O)N1C[C@H](OP(=O)(O)OCCCCCCCCCC(=O)NC(COCCC(=O)NCCCNC(=O)CCCCOC2OC(CO)C(O)C(O)C2NC(C)=O)(COCCC(=O)NCCCNC(=O)CCCCOC2OC(CO)C(O)C(O)C2NC(C)=O)COCCC(=O)NCCCNC(=O)CCCCOC2OC(CO)C(O)C(O)C2NC(C)=O)C[C@H]1C(=O)NCc1ccc(-c2scnc2C)cc1)C(C)(C)C (some centres unmarked) [WG-1 (00300639)]	677 µM (≈ 1770 µg/mL)	about 9.2 times	21.3 nM	18 nM	0.93	0.72	0.31	0.16	0.13		
COc1cc2nccc(Oc3ccc(NC(=O)NC4CC4)c(Cl)c3)c2cc1C(=O)NCCCCCCC(=O)N[C@H](C(=O)N1C[C@H](OP(=O)(O)OCCCCCCCCCC(=O)NC(CNC(=O)CCCCCCOC2OC(CO)C(O)C(O)C2NC(C)=O)CNC(=O)CCCCCCOC2OC(CO)C(O)C(O)C2NC(C)=O)C[C@H]1C(=O)NCc1ccc(-c2scnc2C)cc1)C(C)(C)C (some centres unmarked) [WG-2(00300629)]	603 µM (≈ 1180 µg/mL)	WG-2 is about 8.3 times	29.5 nM	21.4 nM							
CC(=O)N[C@H]1[C@H](OCCCCC(=O)NCCCNC(=O)CCOCC(COCCC(=O)NCCCNC(=O)CCCCO[C@@H]2O[C@H](CO)[C@H](O)[C@H](O)[C@H]2NC(C)=O)(COCCC(=O)NCCCNC(=O)CCCCO[C@@H]2O[C@H](CO)[C@H](O)[C@H](O)[C@H]2NC(C)=O)NC(=O)CCCCCCCCCOP(=O)(O)O[C@@H]2C[C@@H](C(=O)NCc3ccc(-c4scnc4C)cc3)N(C(=O)[C@@H](NC(=O)COCCOCCN(C)C(=O)c3cc(Oc4ccc(NC(=O)Nc5ccc(Cl)c(C(F)(F)F)c5)cc4)ccn3)C(C)(C)C)C2)O[C@H](CO)[C@H](O)[C@@H]1O [WG-3(00400639)]		WG-3 is about 15 times	79.9 nM	81.4 nM						255 µM (≈ 681 µg/mL)	
COc1cc2c(Oc3ccc(NC(=O)C4(C(=O)Nc5ccc(F)cc5)CC4)cc3)ccnc2cc1OCCCOCCCOCCC(=O)N[C@H](C(=O)N1C[C@H](OP(=O)(O)OCCCCCCCCCC(=O)NC(COCCC(=O)NCCCNC(=O)CCCCOC2OC(CO)C(O)C(O)C2NC(C)=O)(COCCC(=O)NCCCNC(=O)CCCCOC2OC(CO)C(O)C(O)C2NC(C)=O)COCCC(=O)NCCCNC(=O)CCCCOC2OC(CO)C(O)C(O)C2NC(C)=O)C[C@H]1C(=O)NCc1ccc(-c2scnc2C)cc1)C(C)(C)C (some centres unmarked) [WG-4(00500639)]	476 µM (≈ 1300 µg/mL)	WG-4 is about 17.1 times									
COc1cc2c(Oc3ccc(NC(=O)C4(C(=O)Nc5ccc(F)cc5)CC4)cc3F)ccnc2cc1OCCCOCCCOCCC(=O)N[C@H](C(=O)N1C[C@H](OP(=O)(O)OCCCCCCCCCC(=O)NC(COCCC(=O)NCCCNC(=O)CCCCOC2OC(CO)C(O)C(O)C2NC(C)=O)(COCCC(=O)NCCCNC(=O)CCCCOC2OC(CO)C(O)C(O)C2NC(C)=O)COCCC(=O)NCCCNC(=O)CCCCOC2OC(CO)C(O)C(O)C2NC(C)=O)C[C@H]1C(=O)NCc1ccc(-c2scnc2C)cc1)C(C)(C)C (some centres unmarked) [WG-5(00600639)]	731 µM (≈ 2010 µg/mL)	WG-5 is about 11.5 times									
COc1cc2nccc(Oc3ccc(NC(=O)NC4CC4)c(Cl)c3)c2cc1C(=O)NCCCCCCC(=O)N[C@H](C(=O)N1C[C@H](O)C[C@H]1C(=O)NCc1ccc(-c2scnc2C)cc1)C(C)(C)C [WGint4 (003006)]	31 µM (≈ 30 µg/mL)			150 nM	0.97	0.97	0.84	0.65	0.22		211 nM
